According to article PMC7828477, “Synthesis and Evaluation of Novel Iminosugars Prepared from Natural Amino Acids” (Molecules, 2021):
Structures can show the parent of a compound that is named as a salt.

How the values were obtained:
Test in all cases: p-nitrophenyl glycoside hydrolysis, A405, […] min
Format in all cases: biochemical
[1] = target: T1, α-L-fucosidase from Homo sapiens (Homo sapiens, UniProt P04066); conditions: read-out: α-L-Fuc
T1 construct: gene FUCA1
T1 sequence (P04066 32-466): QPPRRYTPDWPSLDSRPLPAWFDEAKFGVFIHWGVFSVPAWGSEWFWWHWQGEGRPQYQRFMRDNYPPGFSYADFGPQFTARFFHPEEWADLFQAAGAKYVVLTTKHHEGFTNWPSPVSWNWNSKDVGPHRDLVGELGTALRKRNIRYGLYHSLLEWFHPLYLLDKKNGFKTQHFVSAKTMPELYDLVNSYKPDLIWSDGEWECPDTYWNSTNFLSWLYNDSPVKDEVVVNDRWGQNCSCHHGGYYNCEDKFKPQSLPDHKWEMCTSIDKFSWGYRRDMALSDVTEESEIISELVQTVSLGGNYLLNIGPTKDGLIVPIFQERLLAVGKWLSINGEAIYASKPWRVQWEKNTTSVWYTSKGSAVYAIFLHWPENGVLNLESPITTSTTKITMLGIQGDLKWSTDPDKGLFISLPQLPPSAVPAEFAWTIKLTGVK

[2] = target: α-galactosidase from Green coffee (Coffea arabica, UniProt Q42656); conditions: read-out: α-Gal
Sequence of α-galactosidase from Green coffee (Q42656 16-378): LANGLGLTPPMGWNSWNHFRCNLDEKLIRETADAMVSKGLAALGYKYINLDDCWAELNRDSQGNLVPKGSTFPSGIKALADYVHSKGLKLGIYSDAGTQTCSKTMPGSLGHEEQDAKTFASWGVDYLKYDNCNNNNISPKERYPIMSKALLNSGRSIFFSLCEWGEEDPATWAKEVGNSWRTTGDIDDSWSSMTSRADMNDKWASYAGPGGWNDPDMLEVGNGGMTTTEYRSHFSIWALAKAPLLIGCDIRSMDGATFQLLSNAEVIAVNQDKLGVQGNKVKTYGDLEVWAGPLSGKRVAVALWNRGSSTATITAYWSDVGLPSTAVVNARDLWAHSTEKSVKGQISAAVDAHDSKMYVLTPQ

[3] = target: T2, β-galactosidase from Escherichia coli (Escherichia coli, UniProt P00722); conditions: read-out: β-Gal
T2 construct: gene lacZ
T2 sequence (P00722 2-1024): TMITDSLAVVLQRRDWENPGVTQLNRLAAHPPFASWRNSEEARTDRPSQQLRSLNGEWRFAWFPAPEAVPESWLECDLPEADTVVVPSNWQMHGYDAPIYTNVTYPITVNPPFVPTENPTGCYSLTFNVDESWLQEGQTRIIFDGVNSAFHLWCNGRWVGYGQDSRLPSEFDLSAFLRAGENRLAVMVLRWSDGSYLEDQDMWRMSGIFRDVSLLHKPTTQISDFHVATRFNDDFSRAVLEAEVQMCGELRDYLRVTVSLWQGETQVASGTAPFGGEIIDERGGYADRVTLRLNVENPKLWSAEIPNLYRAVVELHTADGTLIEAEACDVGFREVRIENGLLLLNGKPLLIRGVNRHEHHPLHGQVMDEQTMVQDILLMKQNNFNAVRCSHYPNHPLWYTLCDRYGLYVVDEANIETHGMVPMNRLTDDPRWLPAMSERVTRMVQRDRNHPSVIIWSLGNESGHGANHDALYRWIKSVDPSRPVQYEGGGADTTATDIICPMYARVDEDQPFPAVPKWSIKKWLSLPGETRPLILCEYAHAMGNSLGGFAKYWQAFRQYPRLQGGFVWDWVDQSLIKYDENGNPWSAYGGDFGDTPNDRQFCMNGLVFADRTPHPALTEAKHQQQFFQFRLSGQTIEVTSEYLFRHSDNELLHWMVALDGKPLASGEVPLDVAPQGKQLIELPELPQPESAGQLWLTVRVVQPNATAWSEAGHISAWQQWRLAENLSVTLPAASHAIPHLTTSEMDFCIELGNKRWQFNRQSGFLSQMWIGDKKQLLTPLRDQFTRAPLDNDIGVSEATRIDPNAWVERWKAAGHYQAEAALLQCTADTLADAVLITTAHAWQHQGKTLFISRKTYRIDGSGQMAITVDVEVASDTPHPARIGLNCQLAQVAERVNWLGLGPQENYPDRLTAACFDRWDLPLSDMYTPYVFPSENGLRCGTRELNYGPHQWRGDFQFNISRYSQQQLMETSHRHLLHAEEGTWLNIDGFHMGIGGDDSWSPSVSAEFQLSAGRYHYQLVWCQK

SMILES: C[C@@H]1NC[C@H]2[C@H](CO)[C@H]2[C@H]1O [6b, (1S,4S,5R,6S,7S)-7-(hydroxymethyl)-4-methyl-3-azabicyclo[4.1.0]heptan-5-ol]
- activity at 5000 µM [1]: 142%

SMILES: O=C(O)[C@H]1[C@@H]2CN[C@@H](CO)[C@@H](O)[C@@H]21 [10a, (1R,4S,5S,6S,7S)-7-carboxy-5-hydroxy-4-(hydroxymethyl)-3-azabicyclo[4.1.0]heptan-3-ium trifluoroacetate]
- activity at 5000 µM [2]: 154%

SMILES: OC[C@@H]1[C@@H]2CN[C@@H](CO)[C@@H](O)[C@H]12 [11b]
- activity at 5000 µM [3]: 25%
